Data: EP0241395A2, “Sweeteners derived from n-phenylguanidinoacetic and n-phenylethananamidinacetic acids, and compositions containing such sweeteners” (UNIVERSITE CLAUDE BERNARD - LYON 1, priority 1986, dated 1987)

Test system: groupe de huit goûteurs expérimentés
Assay: Sweetening power judged by a panel of eight experienced tasters against a sucrose reference solution
Type: in vivo
Details: weight basis; for Pouvoir édulcorant: Table II, relative to a 2 % sucrose solution; for pouvoir édulcorant, sur une base pondérale: approximate
Summary of the method: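 Panel of eight experienced tasters compared aqueous solutions of compound at varying concentrations with a sucrose reference at 2 %, sometimes 5 % and 10 %. Sweetening power is the weight ratio of sucrose to compound at equal sweetness intensity, as judged by a majority of tasters, and depends on the reference concentration.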

[1] = by comparison with a 2 % sucrose solution
[2] = by comparison with a 5 % sucrose solution
[3] = by comparison with a 10 % sucrose solution

Compound	Pouvoir édulcorant	pouvoir édulcorant, sur une base pondérale [1]	pouvoir édulcorant, sur une base pondérale [2]	pouvoir édulcorant, sur une base pondérale [3]
COC(=O)c1ccc(N=C(NCC(=O)O)NCC2CCCCC2)cc1 [Exemple 60, acide N-[N-cyclohexylméthylamino(4-méthoxycarbonylphénylimino)méthyl]-2-aminoéthanoïque]	1300	~1 300 fois celui du saccharose	~900 fois celui du saccharose	~500 fois celui du saccharose
O=C(O)CNC(=Nc1cc(Cl)cc(Cl)c1)NN1CCOCC1 [Exemple 76, acide N-[N-morpholinoamino (3,5-dichlorophénylimino)méthyl]-2-aminoéthanoïque]	500	~500 fois celui du saccharose		
N#Cc1ccc(N=C(NCC(=O)O)NCC2CCCCC2)cc1 [Exemple 59, acide N-[N-cyclohexylméthylamino(4-cyanophénylimino)méthyl]-2-aminoéthanoïque]	35000	~35 000 fois celui du saccharose	~28 000 fois celui du saccharose	~17 000 fois celui du saccharose
O=C(O)CNC(=Nc1cc(Cl)cc(Cl)c1)NC1CCCCCC1 [Exemple 44, acide N-[N-cycloheptylamino (3,5-dichlorophénylimino)méthyl]-2-aminoéthanoïque]	20000	~20 000 fois celui du saccharose		
CC1(NC(=Nc2ccc(C#N)cc2)NCC(=O)O)CCCCC1 [Exemple 67]	100	~100 fois celui du saccharose		
COc1ccc(N=C(NCC(=O)O)N[C@@H](C)c2ccccc2)cc1 [Exemple 19, acide N-[N-(S)-α-méthylbenzylamino (4-méthoxyphénylimino)méthyl]-2-aminoéthanoïque]	2 100	~2100 times sucrose		
CC(=O)c1ccc(N=C(NCC(=O)O)N[C@@H](C)c2ccccc2)cc1 [Exemple 15, acide N-[N-(S) -α-méthylbenzylamino (4-acétylphénylimino)méthyl]-2-aminoéthanoïque]	800	~800 fois celui du saccharose		
CN(C(=NCc1ccccc1)NCC(=O)O)c1ccccc1 [Exemple 84, acide N-[benzylimino(N-méthyl-N-phénylamino)méthyl]-2-aminoéthanoïque]	200	~200 fois celui du saccharose		
CCNC(=Nc1ccc(C#N)cc1)NCC(=O)O [Exemple 35, acide N-[N-éthylamino(4-cyanophénylimino)méthyl]-2-aminoéthanoïque]	350	~350 fois celui du saccharose		
O=C(O)CNC(=Nc1ccc([N+](=O)[O-])cc1)NCC1CCCCC1 [Exemple 62, acide N-[N-cyclohexylméthylamino(4-nitrophénylimino)méthyl]-2-aminoéthanoïque]	8000	~8 000 fois celui du saccharose	~7 500 fois celui du saccharose	~4 000 fois celui du saccharose
O=C(O)CNC(=Nc1ccccc1)NC1CCCCC1 [Exemple 42, acide N-[N-cyclohexylamino(phénylimino)méthyl]-2-aminoéthanoïque]	100	~100 fois celui du saccharose		
Cc1ccccc1N=C(NCC(=O)O)Nc1ccc(C#N)cc1 [Exemple 64, acide N-[N-(2-méthylphényl)amino (4-cyanophénylimino)méthyl]-2-aminoéthanoïque]	5000	~5 000 fois celui du saccharose		
